Results on 18 compounds are retold here after patent publication US20170369470A1, “Cyclic Compounds and Uses Thereof” (Karyopharm Therapeutics Inc., priority 2014, published 2017).

Common to all, as to assay type: cell-based
Test [1] has as its system MS751 cells. The experiment in a line: MTT cell proliferation assay, MS751 cells. The following applies: MS751 cells (human cervix squamous cell carcinoma metastasis); incubation approximately 64-72 hours; read-out: MTT Assay IC50 MS 751. How it is done: (§1) The MTT cell proliferation assay was used to study the cytotoxic properties of the compounds. The assay was performed according to the method described by Roche Molecular Biochemicals, with minor modifications. The assay is based on the cleavage of the tetrazolium salt, MTT, in the presence of an electron-coupling reagent. The water-insoluble formazan salt produced must be solubilized in an additional step. Cells grown in a 96-well tissue culture plate were incubated with the MTT solution for approximately 4 hours. After this incubation period, a water-insoluble formazan dye formed. After solubilization, the formazan dye was quantitated using a scanning multi-well spectrophotometer (ELISA reader). […] The cells were seeded at 5,000-10,000 cells in each well of 96-well plate in 100 μL of fresh culture medium and were allowed to attach overnight. The stock solutions of the compounds were diluted in 100 μL cell culture medium to obtain eight concentrations of each test compound, ranging from 1 nM to 30 μM. […] All optical densities were measured at 490 nm using a Vmax Kinetic Microplate Reader (Molecular Devices). In most cases, the assay was performed in duplicate and the results were presented as a mean percent inhibition to the negative control±SE. The following formula was used to calculate the percent of inhibition: Inhibition (%)=(1−(ODo/OD))×100.
(§2) The compounds were tested against MS751, Z138 and 3T3 cells. The MS751 cell line is derived from a metastasis to lymph node of human cervix from a patient diagnosed with squameous cell carcinoma of the cervix. The Z138 cell line is a mature B-cell acute lymphoblastic leukemia cell line derived from a patient with chronic lumphocytic leukemia. 3T3 cells are standard fibroblast cells; they were originally isolated from Swiss mouse embryo tissue.

Test [2] deals with Z138 cells. The experiment in a line: MTT cell proliferation assay, Z138 cells. The following applies: Homo sapiens, Z-138; Z138 cells (mantle cell lymphoma line); incubation approximately 64-72 hours. As for the experimental part: as §1, §2
On the technique in general: Tetrazolium assays rely on reduction of a dye to a coloured formazan, in cell work by metabolically active cells.

For test [3], the system named is 3T3 cells. The experiment in a line: MTT cell proliferation assay, 3T3 cells. The note with it: NIH3T3; 3T3 fibroblast cells (Swiss mouse embryo); incubation approximately 64-72 hours. How it is done: as §1, §2

As usually defined, the IC50 is the concentration needed to halve the response being measured. Consider `Nc1ccc(/C=C/C(=O)NCc2cc3cc(-c4ccc(C(=O)N5CCC(F)(F)CC5)cc4)cc(C(F)(F)F)c3s2)cn1` [compound 518, (E)-3-(6-aminopyridin-3-yl)-N-((5-(4-(4,4-difluoropiperidine-1-carbonyl)phenyl)-7-(trifluoromethyl)benzo[b]thiophen-2-yl)methyl)acrylamide], for which the IC50 in test [1] is 1 to 5 µM; in test [2], 1 to 5 µM; in test [3] it was greater than 10 µM.

For the compound `Nc1ccc(/C=C/C(=O)NCc2cc3cc(-c4ccc(C(=O)N5CC6(COC6)C5)cc4)cc(C(F)(F)F)c3s2)cn1` [compound 519, (E)-N-((5-(4-(2-oxa-6-azaspiro[3.3]heptane-6-carbonyl)phenyl)-7-(trifluoromethyl)benzo[b]thiophen-2-yl)methyl)-3-(6-aminopyridin-3-yl)acrylamide], the IC50 in test [1] is less than 1 µM; in test [2], less than 1 µM; in test [3], greater than 10 µM.

With `Nc1ccc(/C=C/C(=O)NCc2cc3cc(-c4ccc(C(=O)N5CCC(F)(F)C5)cc4)cc(C(F)(F)F)c3s2)cn1` [compound 520, (E)-3-(6-aminopyridin-3-yl)-N-((5-(4-(3,3-difluoropyrrolidine-1-carbonyl)phenyl)-7-(trifluoromethyl)benzo[b]thiophen-2-yl)methyl)acrylamide], the values for the IC50 in test [1], in test [2] and in test [3] were 5 to 10 µM, 1 to 5 µM and greater than 10 µM, respectively.

Turning to `Nc1ccc(/C=C/C(=O)NCc2cc3cc(-c4ccc(C(=O)N5CCC(O)(C(F)(F)F)CC5)cc4)cc(C(F)(F)F)c3s2)cn1` [compound 521, (E)-3-(6-aminopyridin-3-yl)-N-((5-(4-(4-hydroxy-4-(trifluoromethyl)piperidine-1-carbonyl)phenyl)-7-(trifluoromethyl)benzo[b]thiophen-2-yl)methyl)acrylamide], the IC50 in test [1] is 1 to 5 µM; in test [2], 1 to 5 µM; in test [3] it was greater than 10 µM.

Turning to `CC1(F)CCN(C(=O)c2ccc(-c3cc(C(F)(F)F)c4sc(CNC(=O)/C=C/c5ccc(N)nc5)cc4c3)cc2)C1` (stereo not drawn) [compound 522, (E)-3-(6-aminopyridin-3-yl)-N-((5-(4-(3-fluoro-3-methylpyrrolidine-1-carbonyl)phenyl)-7-(trifluoromethyl)benzo[b]thiophen-2-yl)methyl)acrylamide], the values for the IC50 in test [1], in test [2] and in test [3] were 5 to 10 µM, 1 to 5 µM and greater than 10 µM, respectively.

With `CC1(C)COCCN1C(=O)c1ccc(-c2cc(C(F)(F)F)c3sc(CNC(=O)/C=C/c4ccc(N)nc4)cc3c2)cc1` [compound 523, (E)-3-(6-aminopyridin-3-yl)-N-((5-(4-(3,3-dimethylmorpholine-4-carbonyl)phenyl)-7-(trifluoromethyl)benzo[b]thiophen-2-yl)methyl)acrylamide], the results for the IC50 in test [1], in test [2] and in test [3] were 1 to 5 µM, 1 to 5 µM and greater than 10 µM, respectively.

On to `Nc1ccc(/C=C/C(=O)NCc2cc3cc(-c4ccc(C(=O)N5CC(F)(F)C5)cc4)cc(C(F)(F)F)c3s2)cn1` [compound 524, (E)-3-(6-aminopyridin-3-yl)-N-((5-(4-(3,3-difluoroazetidine-1-carbonyl)phenyl)-7-(trifluoromethyl)benzo[b]thiophen-2-yl)methyl)acrylamide], for which the IC50 in test [1], in test [2] and in test [3] was greater than 10 µM in each case.

Regarding `Nc1ccc(/C=C/C(=O)NCc2cc3cc(-c4ccc(C(=O)N5CC[C@H](F)C5)cc4)cc(C(F)(F)F)c3s2)cn1` [compound 525, (S,E)-3-(6-aminopyridin-3-yl)-N-((5-(4-(3-fluoropyrrolidine-1-carbonyl)phenyl)-7-(trifluoromethyl)benzo[b]thiophen-2-yl)methyl)acrylamide], the results for the IC50 in test [1], in test [2] and in test [3] were 1 to 5 µM, 1 to 5 µM and greater than 10 µM, respectively.

In the case of `CC1(C)CN(C(=O)c2ccc(-c3cc(C(F)(F)F)c4sc(CNC(=O)/C=C/c5ccc(N)nc5)cc4c3)cc2)CCO1` [compound 526, (E)-3-(6-aminopyridin-3-yl)-N-((5-(4-(2,2-dimethylmorpholine-4-carbonyl)phenyl)-7-(trifluoromethyl)benzo[b]thiophen-2-yl)methyl)acrylamide], the IC50 in test [1] was 1 to 5 µM; in test [2], less than 1 µM; in test [3] it was greater than 10 µM.

As for `Nc1ccc(/C=C/C(=O)NCc2cc3cc(-c4ccc(C(=O)N5CC6(C5)CC(F)(F)C6)cc4)cc(C(F)(F)F)c3s2)cn1` [compound 527, (E)-3-(6-aminopyridin-3-yl)-N-((5-(4-(6,6-difluoro-2-azaspiro[3.3]heptane-2-carbonyl)phenyl)-7-(trifluoromethyl)benzo[b]thiophen-2-yl)methyl)acrylamide], the IC50 was 1 to 5 µM in test [1], 1 to 5 µM in test [2] and greater than 10 µM in test [3].

Consider `CC1(O)CCN(C(=O)c2ccc(-c3cc(C(F)(F)F)c4sc(CNC(=O)/C=C/c5ccc(N)nc5)cc4c3)cc2)CC1` [compound 528, (E)-3-(6-aminopyridin-3-yl)-N-((5-(4-(4-hydroxy-4-methylpiperidine-1-carbonyl)phenyl)-7-(trifluoromethyl)benzo[b]thiophen-2-yl)methyl)acrylamide], for which the IC50 in test [1] is 1 to 5 µM; in test [2], less than 1 µM; in test [3] it was greater than 10 µM.

For `Nc1ccc(/C=C/C(=O)NCc2cc3cc(-c4ccc(C(=O)N5CCC(F)CC5)cc4)cc(C(F)(F)F)c3s2)cn1` [compound 529, (E)-3-(6-aminopyridin-3-yl)-N-((5-(4-(4-fluoropiperidine-1-carbonyl)phenyl)-7-(trifluoromethyl)benzo[b]thiophen-2-yl)methyl)acrylamide], the IC50 in test [1], in test [2] and in test [3] was greater than 10 µM each time.

On to `Nc1ccc(/C=C/C(=O)NCc2nc3cc(-c4ccc(C(=O)N5CCC(F)(F)CC5)cn4)cc(C(F)(F)F)c3[nH]2)cn1` [compound 530, (E)-3-(6-aminopyridin-3-yl)-N-((5-(5-(4,4-difluoropiperidine-1-carbonyl)pyridin-2-yl)-7-(trifluoromethyl)-1H-benzo[d]imidazol-2-yl)methyl)acrylamide], for which the IC50 in test [1], in test [2] and in test [3] was greater than 10 µM in each case.

Consider `Cn1c(CNC(=O)/C=C/c2ccc(N)nc2)nc2c(C(F)(F)F)cc(-c3ccc(C(=O)N4CCC(F)(F)CC4)cn3)cc21` [compound 531, (E)-3-(6-aminopyridin-3-yl)-N-((6-(5-(4,4-difluoropiperidine-1-carbonyl)pyridin-2-yl)-1-methyl-4-(trifluoromethyl)-1H-benzo[d]imidazol-2-yl)methyl)acrylamide], for which the IC50 in test [1], in test [2] and in test [3] was greater than 10 µM in each case.

In the case of `Nc1ccc(/C=C/C(=O)NCc2nc3cc(-c4ccc(C(=O)N5CCC(F)(F)CC5)cn4)cc(C(F)(F)F)c3s2)cn1` [compound 532, (E)-3-(6-aminopyridin-3-yl)-N-((5-(5-(4,4-difluoropiperidine-1-carbonyl)pyridin-2-yl)-7-(trifluoromethyl)benzo[d]thiazol-2-yl)methyl)acrylamide], the figures for the IC50 in test [1], in test [2] and in test [3] were less than 1 µM, less than 1 µM and greater than 10 µM, respectively.

Consider `Nc1ccc(/C=C/C(=O)NCc2nc3cc(-c4ccc(C(=O)N5CCC(F)(F)CC5)cc4)cc(C(F)(F)F)c3s2)cn1` [compound 533, (E)-3-(6-aminopyridin-3-yl)-N-((5-(4-(4,4-difluoropiperidine-1-carbonyl)phenyl)-7-(trifluoromethyl)benzo[d]thiazol-2-yl)methyl)acrylamide], for which the IC50 was less than 1 µM in test [1], less than 1 µM in test [2] and greater than 10 µM in test [3].

`Nc1ccc(/C=C/C(=O)NCCc2cc3cc(-c4ccc(C(=O)N5CCC(F)(F)CC5)cn4)cc(C(F)(F)F)c3s2)cn1` [compound 534, (E)-3-(6-aminopyridin-3-yl)-N-(2-(5-(5-(4,4-difluoropiperidine-1-carbonyl)pyridin-2-yl)-7-(trifluoromethyl)benzo[b]thiophen-2-yl)ethyl)acrylamide]: the IC50 in test [1], in test [2] and in test [3] was less than 1 µM throughout.

Turning to `Nc1ccc(/C=C/C(=O)NCc2nc3cc(-c4ccc(C(=O)N5CCC(F)(F)CC5)cc4)cc(-c4ccc(F)cc4)c3s2)cn1` [compound 535, (E)-3-(6-aminopyridin-3-yl)-N-((5-(4-(4,4-difluoropiperidine-1-carbonyl)phenyl)-7-(4-fluorophenyl)benzo[d]thiazol-2-yl)methyl)acrylamide], the IC50 in test [1] was 1 to 5 µM; in test [2], 1 to 5 µM; in test [3], greater than 10 µM.
